Laboratory results from patent US12110255B2, “Additive formulation for reduction or prevention of microbially induced corrosion in concrete or cementitious material” (MICROBAN PRODUCTS COMPANY, priority 2017, dated 2024).
Converted amounts (≈) assume the structure as drawn. Like-named read-outs stand apart in the source and are kept apart here.

Key:
[1] = tested on: Starkeya + Fusarium; assay: Minimum Inhibitory Concentration (MIC) test, aqueous state; type: cell-based, Starkeya novella + Fusarium oxysporum; conditions: for MIC: Fusarium, read-out: Active Ingredient Minimum Inhibitory Concentration, Starkeya + Fusarium
Method: (§1) Table 1 indicates the MIC values generated against Th. Novella, Fusarium and a combination of the two for two antifungal additives that were tested in the aqueous state.
(§2) In addition to testing the active ingredients alone, MIC tests were conducted for combinations of the QS and the antifungal actives. An OIT active material was added to this test using the QS molecule to compatibilize the mixture, making the mixture water soluble so MIC testing was possible. Table 2 summarizes the MIC data generated for these actives: […]

[2] = tested on: Starkeya novella; assay: as above; type: cell-based; conditions: Ancylobacter novellus, active ingredient alone
Method: as §1, §2

[3] = tested on: Fusarium oxysporum; assay: as above; type: cell-based; conditions: for MIC: Fusarium oxysporum
Method: as §1
In addition to testing the active ingredients alone, MIC tests were conducted for combinations of the QS and the antifungal actives. An OIT active material was added to this test using the QS molecule to compatibilize the mixture, making the mixture water soluble so MIC testing was possible. Table 2 summarizes the MIC data generated for these actives:
(§3) Testing was also conducted to determine whether the addition of the defoamer or mixing the QS and OIT together would have any effect on the microbial efficacy of these components.

[4] = tested on: Aspergillus niger; assay: Minimum Inhibitory Concentration (MIC) test; type: cell-based; conditions: Table 5, Tributyl Phosphate Defoamer: No
Method: as §3

[5] = active ingredient alone, aqueous state
[6] = Table 5, Tributyl Phosphate Defoamer: No, read-out: MIC, Fusarium oxysporum

Compound: CCCCCCCCCCCCCCCCCC[N+](C)(C)CCC[Si](OC)(OC)OC.[Cl-] [QS, 1-Octadecanaminium, N,N-dimethyl-N-(3-(trimethoxysilyl)propyl)-, chloride]
- MIC [1, 5]: 31.3 µg/mL
- MIC [2]: 7.8 µg/mL
- MIC [3, 6]: 15.6 µg/mL
- MIC ([3]; active ingredient alone, aqueous state, read-out: Active Ingredient Minimum Inhibitory Concentration, Fusarium oxysporum): 15.6 µg/mL
- MIC [4]: 125 µg/mL

Compound: CCCCCCCCn1sccc1=O [OIT, 2-Octyl-2H-isothiazol-3-one]
- MIC [3, 6]: 6.3 µg/mL
- MIC [4]: 6.3 µg/mL (≈ 29.5 µM)

Compound: Oc1ccccc1-c1ccccc1.[Na] [P2, Sodium OrthophenylPhenol]
- MIC [1]: 125 µg/mL
- MIC ([3]; read-out: Active Ingredient Minimum Inhibitory Concentration, Fusarium oxysporum): 250 µg/mL

Compound: Imazalil Sulphate [IF4]
- Active Ingredient Minimum Inhibitory Concentration, Starkeya + Fusarium [1, 5]: 500 ppm
- Active Ingredient Minimum Inhibitory Concentration, Fusarium oxysporum [3, 5]: 500 ppm
